The results in this text go back to ChEMBL document CHEMBL1201862, “PubChem BioAssay data set” (2004).

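Protocol summary: plate cells (96-well), add compound at 5 concentrations, incubate 48 h, interpolate endpoints linearly. GI50 = concentration required for 50% inhibition of growth.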 Activity calls are given as the source filed them. No stated cut-off is given here; in the data, active = GI50 up to about 1.1 µM and inactive = higher. Where only a bound is given, the exact number is not on record here.

Common to all, as to experiment: DTP human tumour cell line panel, 48 h
The test system of assay [1] is NCI/ADR-RES.
For assay [2], the system named is SNB-75.
The subject of assay [3] is TK-10.
For assay [4], the system named is SK-OV-3.
The subject of assay [5] is SNB-19.
Assay [6] relates to SK-MEL-28.
Assay [7] relates to CAKI-1.
For assay [8], the system named is 786-0.
Assay [9] deals with OVCAR-3.
Assay [10] concerns OVCAR-8.
The test system of assay [11] is MDA-MB-435.
In assay [12] the test system is PC-3.
Assay [13] relates to LOX IMVI.
In assay [14] the test system is UO-31.
Assay [15] concerns RXF 393.
Assay [16] concerns HCT-15.
In assay [17] the test system is IGROV-1.
The test system of assay [18] is MOLT-4.
Assay [19] has as its system CCRF-CEM.
Assay [20] relates to COLO 205.

The term GI50 denotes the concentration that inhibits growth by half. Take `O=C(O)CSc1ccc([N+](=O)[O-])cc1[N+](=O)[O-]`: the GI50 in assay [1], in assay [2], in assay [3], in assay [4], in [5] and in assay [6] was > 100 µM (inactive) throughout. Besides, the GI50 in [7], in assay [8], in [9], in [10], in assay [11] and in assay [12] was > 100 µM (inactive) in each case. In addition, the GI50 was > 100 µM (inactive) in [13]; > 100 µM (inactive) in [14]; > 100 µM (inactive) in assay [15]; above 100 µM in assay [16]; > 100 µM (inactive) in assay [17].

As to `O=[N+]([O-])c1ccc(NC(=S)N/N=C(\c2ccccc2)c2ccccn2)cc1`, the GI50 is 2.04 µM (inactive) in [1]; 2.1 µM (inactive) in [2]; < 0.0314 µM (active) in assay [18]; < 0.0184 µM (active) in assay [19]; 1.24 µM (inactive) in [3]; 1.4 µM (inactive) in assay [4]. Moreover, the GI50 in assay [20] is 0.312 µM (active); in [5], 1.58 µM (inactive); in assay [6], 1.22 µM (inactive); in [7] it was 1.6 µM (inactive); in assay [8], 1.25 µM (inactive); in assay [10] it was 0.037 µM (active). Moreover, the GI50 in [11] is 1.74 µM (inactive); in assay [12], 0.229 µM (active); in [14], 1.46 µM (inactive); in assay [15], 1.38 µM (inactive); in assay [16], 0.119 µM; in [17], 1.64 µM (inactive).

For `CCn1c(=O)c2c3ccc(O)cc3[nH]c2c2ccc(O)cc21`, the GI50 in [1] was > 100 µM (inactive); in [2] it was 66.2 µM (inactive); in assay [18], 39.1 µM (inactive); in assay [19], 55.8 µM (inactive); in assay [3] it was > 100 µM (inactive); in assay [4] it was > 100 µM (inactive). Also, the GI50 in assay [20], in assay [5], in assay [6], in [7], in [9] and in assay [10] was > 100 µM (inactive) each time. Also, the GI50 is 61 µM (inactive) in assay [11]; > 100 µM (inactive) in assay [12]; > 100 µM (inactive) in [14]; > 100 µM (inactive) in assay [15]; above 100 µM in assay [16]; > 100 µM (inactive) in assay [17].

For the compound `COC(=O)c1ccc(/C=C2\Cc3ccccc3C2=O)cc1`, the GI50 in assay [1], in assay [2], in assay [18], in assay [19], in assay [3] and in [4] was > 100 µM (inactive) in each case. Further, the GI50 in assay [20], in assay [5], in assay [6], in assay [7], in assay [8] and in assay [9] was > 100 µM (inactive) throughout. For the same compound, the GI50 was > 100 µM (inactive) in assay [10]; > 100 µM (inactive) in [11]; > 100 µM (inactive) in assay [12]; > 100 µM (inactive) in assay [14]; > 100 µM (inactive) in [15]; above 100 µM in assay [16].

Consider `COc1ccc(-c2cc(-c3ccc(Nc4ccnc5cc(Cl)ccc45)cc3)nc(N)c2C#N)cc1`, for which the GI50 in assay [1], in assay [2], in assay [18], in assay [3], in assay [4] and in assay [20] was > 100 µM (inactive) each time. Moreover, the GI50 in assay [5], in [6], in assay [7], in assay [8], in assay [9] and in assay [10] was > 100 µM (inactive) each time. The GI50 in assay [11] is > 100 µM (inactive); in assay [12], > 100 µM (inactive); in [13], > 100 µM (inactive); in [14], 27.4 µM (inactive); in [15] it was > 100 µM (inactive); in [16] it was above 100 µM. Moreover, the GI50 in [17] is > 100 µM (inactive).

Turning to `Cc1ccc(S(=O)(=O)N2CCc3cc(O)c([N+](=O)[O-])cc32)cc1`, the GI50 in assay [1], in assay [2], in [18], in assay [19], in assay [3] and in [4] was > 100 µM (inactive) throughout. Besides, the GI50 in [20], in assay [5], in [6], in [7], in [8] and in assay [10] was > 100 µM (inactive) each time. Further, the GI50 in assay [11] is > 100 µM (inactive); in assay [12], > 100 µM (inactive); in assay [13], > 100 µM (inactive); in [14], > 100 µM (inactive); in assay [15] it was > 100 µM (inactive); in [16], above 100 µM. Further, the GI50 in assay [17] was > 100 µM (inactive).

Consider `O=C1Sc2ccccc2NC1=C(C(=O)c1ccccc1)C(=O)c1ccccc1`, for which the GI50 in assay [1] was 22.3 µM (inactive); in assay [2] it was 31.6 µM (inactive); in assay [19], 1.18 µM (inactive); in [3], 26.1 µM (inactive); in [4] it was 21.7 µM (inactive); in assay [20], 37.4 µM (inactive). The GI50 in assay [5] was 33 µM (inactive); in [6], > 100 µM (inactive); in assay [7], 56.2 µM (inactive); in assay [8], 26.2 µM (inactive); in [9], 5.18 µM (inactive); in [10], 22.9 µM (inactive). For the same compound, the GI50 is 40.6 µM (inactive) in assay [11]; 20.6 µM (inactive) in [12]; 13.5 µM (inactive) in assay [13]; 29.9 µM (inactive) in assay [14]; 47.1 µM (inactive) in assay [15]; 19.5 µM in assay [16]. For the same compound, the GI50 in [17] was 38.4 µM (inactive).

For `C[C@H]1C[C@H]2[C@@H]3CCC4=CC(=O)C=C[C@]4(C)C3=CC[C@]2(C)[C@@]1(O)C(=O)CO`, the GI50 in assay [1] was > 100 µM (inactive); in assay [2] it was > 100 µM (inactive); in [18], 64 µM (inactive); in [19] it was 66.8 µM (inactive); in [3], > 100 µM (inactive); in assay [4], > 100 µM (inactive). Further, the GI50 in assay [20], in assay [5], in assay [6], in assay [7], in assay [8] and in assay [10] was > 100 µM (inactive) throughout. In addition, the GI50 in assay [11] was > 100 µM (inactive); in [12], 99.5 µM (inactive); in assay [13], > 100 µM (inactive); in [14], > 100 µM (inactive); in assay [15] it was > 100 µM (inactive); in [16] it was above 100 µM. For the same compound, the GI50 in [17] was > 100 µM (inactive).
